Data set [1] relates to MDA-MB 435 melanoma cell line. As to the kind of experiment: MTT cytotoxicity assay, MDA-MB 435. It counts as cell-based. The note with it: Homo sapiens, 72 h, read-out: GI50, MDA-MD435. The text has this:
(§1) Human melanoma cell line MDA-MB 435, pancreatic cancer cell line Panc-1, and colon cancer cell line HT 29 were purchased from the American Type Cell Culture (Manassas, VA, USA). HCT 116 p53^+/+ and HCT 116 p53^−/^− were kindly provided by Dr. Bert Vogelstein, Johns Hopkins Medical Institutions (Baltimore, MD, USA). HCT 116 p53^+/+, HCT116 p53^−/^−, and HT 29 cells were maintained as monolayer cultures in RPMI 1640 supplemented with 10% fetal bovine serum (FBS; Gemini-Bioproducts, Woodland, CA, USA) and 2 mmol/L L-glutamine at 37 °C in a humidified atmosphere of 5% CO2. Similarly, MDA-MB 435 and Panc-1 cells were maintained in Dulbecco’s modified Eagle’s medium (DMEM) supplemented with 10% fetal bovine serum as described above. […]
(§2) Cytotoxicity was assessed by 3-(4,5-dimethylthiazol-2-yl)-2,5-diphenyltetrazolium bromide (MTT) assay as previously described. […]
(§3) After 72 h exposure to the test compounds, MTT solution (5 mg/mL; 20 μL) was added to each well and cells were incubated for 4 h at 37 °C. […] The absorbance intensity was measured at 570 nm against appropriate blank controls using a microplate reader (Molecular Devices, Sunnyvale, CA, USA). […]

For another data set, the system named is HCT 116 p53^+/+. As to the kind of experiment: MTT cytotoxicity assay, HCT 116 p53+/+. As to conditions: Homo sapiens, 72 h. It counts as cell-based.
Source text: as §1, §2, §3
(Formazan colour is commonly taken as a measure of viable cells.)

The subject of another data set is HCT 116 p53^−/^−. As to the kind of experiment: MTT cytotoxicity assay, HCT 116 p53−/−. The data set is classed as cell-based. As to conditions: Homo sapiens, 72 h.
Source text: as §1, §2, §3

The test system of data set [2] is Panc-1 pancreatic cancer cell line. The data set is described as follows: MTT cytotoxicity assay, Panc-1. The data set is classed as cell-based. The note with it: Homo sapiens, 72 h.
Source text: as §1, §2, §3

Data set [3] concerns HT 29 colon cancer cell line. The data set is described as follows: MTT cytotoxicity assay, HT 29. As to conditions: Homo sapiens, 72 h. The data set is classed as cell-based.
Source text: as §1, §2, §3

The structures appear in SMILES notation.

In the case of `O=C(Nc1ccc(Cl)cc1)C(=S)NN1C(=O)C(=Cc2ccc([N+](=O)[O-])o2)SC1=S` [Compound 13, N-(4-chlorophenyl)-2-{5-[(5-nitro-2-furyl)methylene]-4-oxo-2-thioxo-1,3-thiazolidin-3-yl}amino-2-thioxoacetamide], the melting point (commonly the temperature, or range, at which the solid turns liquid) was 159 to 160 °C. Further, in data set [1], the GI50 (commonly the concentration giving 50% growth inhibition) came to 13.5 ± 5.2 µM. Moreover, the 50% growth inhibitory concentration (GI50) with HCT 116 p53^+/+ is > 10 µM. In addition, in the data set on HCT 116 p53^−/^−, the GI50 came out at 6.5 ± 1.2 µM. This compound came in with a GI50 in data set [2] of 8.6 ± 1.6 µM. Also, in data set [3], the GI50 was > 10 µM.

For the compound `COc1ccc(NC(=O)C(=S)NN2C(=O)C(=Cc3ccc([N+](=O)[O-])o3)SC2=S)cc1` [Compound 17, N-(4-methoxyphenyl)-2-{5-[(5-nitro-2-furyl)methylene]-4-oxo-2-thioxo-1,3-thiazolidin-3-yl}amino-2-thioxoacetamide], the melting point is 187 to 188 °C. In addition, the GI50 in data set [1] came out at 9 ± 1.1 µM. In the data set on HCT 116 p53^+/+, the GI50 turned out to be 5.1 ± 0.8 µM. Moreover, the GI50 with HCT 116 p53^−/^− came to 6.1 ± 2.2 µM. In data set [2], this compound registered a GI50 of 8.2 ± 1.2 µM. Further, the GI50 in data set [3] is 9.6 µM.
